System: Bacillus cereus, Staphylococcus aureus, Pseudomonas aeruginosa, Escherichia coli, Aspergillus flavus, Chrysosporium keratinophilum
Test: Agar plate disc-diffusion antimicrobial activity
Format: cell-based
Settings: disc wetted with 10 μL of 10 mg/mL in DMSO; 37° C., 48 h (72 h for fungi); gram positive and gram-negative bacteria and fungi; result in words only
Description: The agar plate disc-diffusion method was applied. Sterilized filter papers (6 mm in diameter) were wetted with 10 μL of a solution of 2-(benzo[d]oxazol-2-yl)-N′-(2-(5-phenyl-1,3,4-oxadiazol-2-ylthio)acetoxy)acetimidamide (3) to be tested, containing 10 mg/mL in DMSO, and the discs were allowed to air dry. The discs were then placed onto the surface of agar plates (nutrient agar for bacteria and Sabouraud's dextrose agar for fungi) seeded with the test organism. Each plate contained 15 mL of the agar medium, previously seeded with 0.2 mL of the broth culture of each organism pregrown for 18 hours. The plates were incubated at 37° C. for 48 h, and 72 h for fungi. The inhibition zones were measured in mm. Discs impregnated with DMSO were used as a control, and its inhibition zone was subtracted from the tested compound actual inhibition zone. […] The antibacterial activity was screened against gram positive bacteria namely Bacillus cereus and Staphylococcus aureus and gram-negative bacterial strains namely Pseudomonas aeruginosa and Escherichia coli, while the antifungal activity was screened against Aspergillus flavus and Chrysosporium keratinophilum.

N/C(Cc1nc2ccccc2o1)=N\OC(=O)CSc1nnc(-c2ccccc2)o1 [compound 3, 2-(benzo[d]oxazol-2-yl)-N′-(2-(5-phenyl-1,3,4-oxadiazol-2-ylthio)acetoxy)acetimidamide]
antimicrobial activities (inhibition zones): high antimicrobial activities
